# Data: the NIST ThermoML archive (doi:10.1016/j.fluid.2016.04.012)
# Numbers after ± are expanded uncertainties.
# Conditions: Liquid, Closed cell (Static) method
SMILES,vapor or sublimation pressure (337.85 K),vapor or sublimation pressure (338.65 K)
CO [methanol],101.3 ± 1.1 kPa,–
C1CCOC1 [tetrahydrofuran],–,101.3 ± 1.1 kPa
